Results from PubChem BioAssay AID651766 (The Scripps Research Institute Molecular Screening Center, 2012).
Several values for one entry are separate records, joined by “and”; a condition that tells them apart may be missing. Identical values can stand only once. Activity calls are given as the source filed them. How the calls were made is not given here.

Target: Perilipin-1 (Homo sapiens) + 1-acylglycerol-3-phosphate O-acyltransferase ABHD5 (Homo sapiens) (UniProt O60240+Q8WTS1)
Experiment: ABHD5-PLIN1 binding inhibitors, late-stage follow-up, counter-screen for ABHD5-PLIN5 interaction inhibitor project, biochemical, luminescence, dose response (AID 651766)

Compound | IC50
CC1=CC(C)(C)Nc2ccc(OC(=O)C(C)N3C(=O)c4ccccc4C3=O)cc21 (stereo unspecified) | 2.13 µM
O=C(/C(=C/O)N=Nc1ccc(Cl)cc1)c1ccncc1 | 5.2 µM
COc1ccccc1-c1cc(C(=O)NC2CCN(C)CC2)c2ccc(Cl)c(C)c2n1 | 9.85 µM
CN(C)CCN(Cc1ccco1)c1ccccn1 | > 39.8 µM (inactive)
Cc1cc(C)c2nc(NNC(=O)c3ccc(S(=O)(=O)N4CCCC(C)C4)cc3)sc2c1 (stereo unspecified) | 2.53 µM
O=c1[nH]c(C2CCN(S(=O)(=O)c3ccc(S(=O)(=O)NC4CC4)cc3)CC2)nc2c1nnn2Cc1ccc(F)cc1 | 1.99 µM
CCCCNC(=O)Nc1ccc2c(c1)N(C)C(=O)c1ccccc1S2 | 1.46 µM
CN1CCC(=C2c3ccccc3CC(=O)c3sccc32)CC1 | > 39.8 µM (inactive)
CCN(CC)CCOc1ccc(/C(=C(/Cl)c2ccccc2)c2ccccc2)cc1 | 0.983 µM
CC(=O)Oc1ccc(C23c4ccccc4C2(OC(C)=O)c2cc(OC(C)=O)ccc23)cc1 (stereo unspecified) | > 39.8 µM (inactive)
CCCNC(=O)Nc1ccc2c(c1)N(C)C(=O)c1ccccc1S2 | 3.73 µM
COc1cc2c(cc1OC)C(C)N(CCc1ccc(Cl)cc1)CC2 (stereo unspecified) | inactive
CC(=O)Cc1cc(O)c2ccccc2c1OC(=O)c1ccc(Br)cc1 | 2.04 µM
Cc1cc(C)c(NC(=O)CN2CCN3CCCC3C2)c(C)c1 (stereo unspecified) | inactive
CCN(CC)CCN(CC(=O)Nc1c(C)cc(C)cc1C)C(=O)c1ccccc1 | 7.34 µM
CC(=O)Nc1ccc(S(=O)(=O)N2c3ccc(F)cc3CCC2C)cc1 (stereo unspecified) | 5.16 µM
CN(C)CCOC1(Cc2ccc(F)cc2)CCC(C(C)(C)C)CC1 (stereo unspecified) | > 39.8 µM (inactive)
CC(=O)Cc1cc(O)c2ccccc2c1OC(=O)c1ccccc1 | 1.36 µM
O=C(C[n+]1cccc(CNC(=O)c2ccc(OC(F)F)cc2)c1)Nc1cccc(C(F)(F)F)c1 | inactive
COc1cc(C)c2sc3ccccc3c(=O)c2c1NCCN(C)C | > 39.8 µM (inactive)
CC(C)c1ccc(N2C=Nc3ccc(C(C)C)cc3C2)cc1 | 1.26 µM
CCN(CC)CCOCCOC(=O)C1(c2ccccc2)CCCC1 | 0.925 µM
CC1CCN(S(=O)(=O)c2ccc(NC(=O)Cc3cccs3)cc2)CC1 | 3.54 µM
Cc1ccc2c(CC(=O)N3CCN(S(=O)(=O)c4ccc5c(c4)OCCO5)CC3)coc2c1 | 2.38 µM and 1.6 µM
CC1CCN(S(=O)(=O)c2ccc(NC(=O)Cc3ccccc3)cc2)CC1 | 3.98 µM
CCN(CC)CCNC(=O)c1ccc(NC(=O)c2cn(-c3ccccc3)nc2-c2cccs2)cc1 | inactive

The remaining lines, values ahead:

IC50 | Compound
4.16 µM | Cc1nc2c(o1)CCc1ccccc1C2N1CCN(C)CC1 (stereo unspecified)
7.16 µM | COc1ccc(C)c2sc(N(CCN(C)C)C(=O)/C=C/c3cccs3)nc12
3.83 µM | CCCCOC(=O)Nc1cc(C(=O)OC)ccc1C(=O)OC
2.14 µM and 2.18 µM | NC(=NCCCCCCN=C(N)/N=C(\N)Nc1ccc(Cl)cc1)/N=C(\N)Nc1ccc(Cl)cc1
1.2 µM | CCOc1cc(N)c(Cl)cc1C(=O)NCC1CN(Cc2ccc(F)cc2)CCO1 (stereo unspecified)
3.72 µM | CCOC(=O)c1c(NC(=O)/C=C/C(=O)O)sc(C)c1-c1ccc(C(C)(C)C)cc1
1.62 µM | CCOC(=O)c1c(NC(C)=O)sc2c1CCC(C=O)=C2Sc1ccccc1
8.99 µM | FC(F)(F)c1cccc(NC(=S)N(CCCN2CCCC2)Cc2cccn2Cc2ccc(Cl)cc2)c1
4.48 µM | Cc1cc(C)c(NC(=O)C[N+](C)(C)CC(O)COc2cccc3ccccc23)c(C)c1 (stereo unspecified)
> 39.8 µM (inactive) | COCCN(CCOC)c1nc(N)c2c(N)nc3c(c2c1C#N)CC(=O)N3Cc1ccc(Cl)cc1
8.94 µM | O=c1[nH]c(C2CCN(S(=O)(=O)c3ccc(F)cc3)CC2)nc2c1nnn2Cc1ccc2c(c1)OCCO2
6.82 µM | CN(C)CCCN(C(=O)CCc1ccccc1)c1nc2ccc(Br)cc2s1
4.51 µM | CC1Sc2ccc(S(=O)(=O)N3CCC(C(=O)NCc4ccc(Cl)cc4)CC3)cc2NC1=O (stereo unspecified)
1.46 µM | COc1cc(OC)cc(C(=O)NC(=S)N(Cc2ccccc2)C(C)C)c1
0.496 µM | Cc1ccc2nc3cc([N+](=O)[O-])cc([N+](=O)[O-])c3cc2c1
inactive | COc1ccc(NC(=S)N(CCCN2CCCC2)Cc2cccn2Cc2ccc(Cl)cc2)cc1Cl
0.744 µM | CC(CCc1ccco1)NC(=O)CCc1nnc2ccc(NCc3ccccc3Cl)nn12 (stereo unspecified)
1.44 µM | CCN(CC)CCC(C)OC(c1ccccc1)c1ccccc1 (stereo unspecified)
5.99 µM | CN(C)CCCN(C(=O)CCc1ccccc1)c1nc2ccc(Cl)cc2s1
inactive | C=C[C@]1(C)C[C@@H](OC(=O)CSCCN(CC)CC)[C@]2(C)C(C)CC[C@]3(CCC(=O)[C@H]32)[C@@H](C)[C@@H]1O (stereo partly specified)
